# Experimental data reported in US20120295935A1, “MIXED AMINAL PHARMACEUTICAL COMPOSITIONS AND USES THEREOF” (priority 2010, published 2012).
# Entries after “also recorded” stand apart in the source; their conditions may differ.
# Tests used:
# [1] = test system: rat pheochromocytoma cell line; settings: cited from earlier work
# [2] = test system: female SD rats; assay: Rat femur healing of surgical wounds (micro CT); type: in vivo; design: wound size decreased vs control / reduction in wound size / cortical thickness increased vs control: concentration or dose not given beside the values; settings: for cortical thickness / cortical thickness increased vs control: femur anterior hole; for cortical thickness increase: femur posterior hole; for reduction in wound size: femur posterior holes
# Method: Rat femur—healing of surgical wounds. A surgical hole with ˜2.0 mm in diameter was generated in the left and right femurs of twenty female SD rats (˜8 weeks, body weight ˜180 g). The holes were drilled through the femur from the anterior surface to the opposite cortex (posterior surface) in the middle of the femur. During the first 5 days, 100 μl of salubrinal solution at dosage of 0.025 mg/kg was injected subcutaneously to the left limb and a PBS solution (vehicle control) in the right limb. The injection site was closed to the anterior surgical hole. Rats were sacrificed on days 10 or 20 after surgery, and the axial and transverse hole sizes as well as cortical thickness (1.5 mm proximal and distal to the center of the hole) were determined with micro CT. […] Regarding the anterior holes, the size of the wounds 10 days after surgery was smaller in the salubrinal treated group by 10.8% (1.905±0.018 mm in control and 1.700±0.021 mm in salubrinal; p<0.001). The size in 20 day samples was further decreased by 18.0% (1.812±0.017 mm in control and 1.486±0.026 mm in salubrinal; p<0.001). […] Note that the reduction in the wound size on day 20 was more significant than those on day 10 in both the anterior and posterior holes (both p<0.001) (FIG. 15B).
# [3] = test system: C57/BL/6 female mice; assay: Mouse tibia bone formation, ankle loading plus local salubrinal; type: in vivo
# Method: Mouse tibia-bone formation: Twenty C57/BL/6 female mice (˜8 weeks, body weight ˜18 g) were employed to examine the combined effects of ankle loading and local administration of salubrinal to the tibia (Zhang P, et al., Salubrinal stimulates anabolic responses in mouse femora, 55th Ann Meeting ORS (2009)). Local administration was targeted into a bone marrow cavity from the proximal tibia. A total volume of 20 μl PBS was injected to the left hindlimb with or without 0.025 mg/kg (100 μM) salubrinal (Calbiochem) using a micro-syringe with a 0.5-inch #26-gauge needle (Worsham D N, et al., In vivo gene transfer into adult stem cells in unconditioned mice by in situ delivery of a lentiviral vector, Mol. Ther. 14:514-24 (2006); Zhu Y, et al., eIF-2a protects brainstem motoneurons in a murine model of sleep apnea, J. Neurosci. 28:2168-78 (2008)). In examination of the combined effects of mechanical loading and salubrinal administration, ankle loading was given for 5 consecutive days after administration of salubrinal on each day. The mouse was placed in an anesthetic induction chamber to cause sedation and then mask-anesthetized using 1.5% isoflurane. With a custom-made piezoelectric mechanical loader, loads were applied to the left ankle for 5 min/day in the lateral-medial direction. The loading frequency was 5 Hz, and the peak-to-peak force was 0.5 N (FIG. 12). The right hindlimb was used as a sham-loaded control (Zhang P, et al., Joint loading-driven bone formation and signaling pathways predicted from genome-wide expression profiles, Bone 44:989-998 (2009)).
# [4] = test system: C57BL/6 mice; assay: In vivo injection into intramedullary cavity of femora, BMD and BMC; design: species or system mouse
# Method: Responses to Administration of Salubrinal—In vivo responses to salubrinal: In order to evaluate the effects of salubrinal in vivo, salubrinal was injected into an intramedullary cavity of the left femora of C57BL/6 mice and alterations in bone mineral density (BMD) and bone mineral content (BMC) were determined. There were 9 salubrinal treated mice as well as 9 placebo mice (injection of PBS). All mice received 4 injections of either salubrinal or PBS in the left femur, while the right femur was used as contralateral control. In four consecutive injections with a 0.5-inch #26-gauge needle and a Hamilton micro-syringe, the laterial side was used on the 1st and 3rd injetions and the medial side on the 2nd and 4th injections. An injection volume was 20 μl for salubrinal or PBS, and the salubrinal concentration was 50 μM. […] At the time of harvest (2 wks after the 1st injection), an increase in body weight in Salubrinal group (0.80±0.13 g) was higher than that in Placebo group (0.28±0.15 g; p<0.05). Harvested bone samples were analyzed with PIXImus (version 1.4, GE Medical System Lunar) for determination of BMD and BMC.
# [5] = test system: mouse hippocampus; settings: direct injection; cited from earlier work
# [6] = test system: MC3T3 cells; assay: Mineralization, von-Kossa staining; type: cell-based, mouse; settings: 10 days
# Method: To evaluate the effects of salubrinal on mineralization, MC3T3 cells were grown in the presence of 50 μg/ml of ascorbic acid and 5 mM β-glycerophosphate for 10 days with and without 10 or 50 μM salubrinal, and von-Kossa staining was conducted. Cells were fixed in 10% formalin and incubated in 5% silver nitrate for 30 min. After rinsing in PBS, staining was developed in 5% sodium carbonate for 2 min. They were counterstained with 0.1% nuclear fast red solution. […] In the field-of-view with 10× objective lens, the mean number of positive dots was 3.2-fold (10 μM salubrinal) and 2.9-fold (50 μM salubrinal) more than that for control cells without salubrinal treatment (FIG. 9).
# [7] = test system: MC3T3 cells; assay: Cell proliferation and death; type: cell-based
# [8] = test system: brainstem motoneurons in mice; settings: hypoxia and reoxygenation events; cited from earlier work
# [9] = ankle loading and salubrinal injection
# [10] = tibia, 0.025 mg/kg (100 μM) plus ankle loading, 5 days
smiles,measurement,setting,value
O=C(/C=C/c1ccccc1)NC(NC(=S)Nc1cccc2cccnc12)C(Cl)(Cl)Cl (centres unmarked) [salubrinal],protection from ER stress-induced apoptosis,[1],protect
same,cortical thickness,[2]; day 10,0.476±0.012 mm
same,cortical thickness increased vs control,[2]; day 10,11.0%
same,cortical thickness,[2]; day 20,0.551±0.014 mm
same,cortical thickness increased vs control,[2]; day 20,25.7%
same,size of the wounds,"[2]; femur anterior holes, 10 days",1.700±0.021 mm
same,wound size smaller vs control,"[2]; femur anterior holes, 10 days, 0.025 mg/kg s.c. first 5 days",10.8%
same,size of the wounds,"[2]; femur anterior holes, 20 days",1.486±0.026 mm
same,wound size decreased vs control,"[2]; femur anterior holes, 20 days",18.0%
same,cortical thickness increase,[2]; postoperative 10 days,13.8%
same,cortical thickness increase,[2]; postoperative 20 days,21.3%
same,reduction in wound size,[2]; postoperative 10 days,4.1%
same,reduction in wound size,[2]; postoperative 20 days,11.1%
same,relative increase in BMC vs ankle loading alone,[3]; [9],1.5 fold
same,relative increase in BMD vs ankle loading alone,[3]; [9],2.3 fold
same,BMC,[3]; [10],0.0154 ± 0.0004 g
same,BMD,[3]; [10],0.0443±0.0011 g/cm^2
same,BMC vs contralateral control,"[4]; femur, 20 μl 50 μM injection",trend to elevate; also recorded: Increased
same,BMD vs contralateral control,"[4]; femur, 20 μl 50 μM injection",Increased
same,BMD,"[4]; injected femur, mean±s.e.m.",0.0456±0.0011 g/cm^2
same,ATF4-dependent long-term synaptic plasticity and memory,[5],modulated
same,mean number of von-Kossa positive dots vs control cells,[6]; 10 μM,3.2 fold
same,mean number of von-Kossa positive dots vs control cells,[6]; 50 μM,2.9 fold
same,cell death,"[7]; 50 μM, no statistical difference (p>0.05)",reduced cell death
same,cell proliferation or death,[7]; 10 or 50 μM for 24 h,did not alter
same,motoneuronal injury,[8],suppressed
